Earlier results as cited in patent US5703067A, “Inhibitors of farnesyl-protein transferase” (Merck & Co., Inc., priority 1995, dated 1997).

Test system: farnesyl-protein transferase
Details: via HMG-CoA reductase inhibition, literature

Structure (SMILES) | Indirect inhibition of farnesyl-protein transferase in vivo
CC[C@H](C)C(=O)O[C@H]1CCC=C2C=C[C@H](C)[C@H](CC[C@@H]3C[C@@H](O)CC(=O)O3)[C@H]21 [compactin] | Indirect inhibition of farnesyl-protein transferase in vivo has been demonstrated
CC[C@H](C)C(=O)O[C@H]1C[C@@H](C)C=C2C=C[C@H](C)[C@H](CC[C@@H]3C[C@@H](O)CC(=O)O3)[C@H]21 [lovastatin] | Indirect inhibition of farnesyl-protein transferase in vivo has been demonstrated
